PubChem BioAssay (NCI)
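All cell lines were grown in 96-well plates and treated with compound for 48 hours. Abbreviation: GI50, concentration required for 50% inhibition of growth. Definition used: TGI = concentration required for complete inhibition of growth.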

Legend:
Assay in all cases: inhibition of tumour cell growth, NCI panel, 48 h
UO-31 renal = test system: UO-31 renal
NCI/ADR-RES ovarian = test system: NCI/ADR-RES ovarian
U251 CNS = test system: U251 CNS
NCI-H460 lung = test system: NCI-H460 lung
SW-620 colon = test system: SW-620 colon
CCRF-CEM leukemia = test system: CCRF-CEM leukemia
MOLT-4 leukemia = test system: MOLT-4 leukemia
MALME-3M melanoma = test system: MALME-3M melanoma
K-562 leukemia = test system: K-562 leukemia
MDA-MB-435 = test system: MDA-MB-435
HCC-2998 colon = test system: HCC-2998 colon
SN12C renal = test system: SN12C renal
SK-MEL-5 melanoma = test system: SK-MEL-5 melanoma
HCT-15 colon = test system: HCT-15 colon
OVCAR-8 ovarian = test system: OVCAR-8 ovarian
SNB-19 CNS = test system: SNB-19 CNS
RXF 393 renal = test system: RXF 393 renal
OVCAR-5 ovarian = test system: OVCAR-5 ovarian
T-47D breast = test system: T-47D breast
SF-268 CNS = test system: SF-268 CNS
RPMI-8226 leukemia = test system: RPMI-8226 leukemia
SF-539 CNS = test system: SF-539 CNS
CAKI-1 renal = test system: CAKI-1 renal
A498 renal = test system: A498 renal
UACC-62 melanoma = test system: UACC-62 melanoma
SK-MEL-28 melanoma = test system: SK-MEL-28 melanoma
NCI-H226 lung = test system: NCI-H226 lung
HOP-92 NSCLC = test system: HOP-92 NSCLC
BT-549 breast = test system: BT-549 breast
786-0 renal = test system: 786-0 renal
EKVX NSCLC = test system: EKVX NSCLC
ACHN renal = test system: ACHN renal
SNB-75 CNS = test system: SNB-75 CNS
MDA-MB-231 breast = test system: MDA-MB-231 breast
UACC-257 melanoma = test system: UACC-257 melanoma
HT29 colon = test system: HT29 colon
HL-60(TB) leukemia = test system: HL-60(TB) leukemia
COLO 205 colon = test system: COLO 205 colon
A549 NSCLC = test system: A549 NSCLC
HCT-116 colon = test system: HCT-116 colon
SK-MEL-2 melanoma = test system: SK-MEL-2 melanoma
SK-OV-3 ovarian = test system: SK-OV-3 ovarian
HOP-62 NSCLC = test system: HOP-62 NSCLC
SF-295 CNS = test system: SF-295 CNS
TK-10 renal = test system: TK-10 renal
OVCAR-3 ovarian = test system: OVCAR-3 ovarian
SR leukemia = test system: SR leukemia
LOX IMVI melanoma = test system: LOX IMVI melanoma
M14 melanoma = test system: M14 melanoma
PC-3 prostate = test system: PC-3 prostate
IGROV1 ovarian = test system: IGROV1 ovarian
NCI-H23 lung = test system: NCI-H23 lung
OVCAR-4 ovarian = test system: OVCAR-4 ovarian
DU-145 prostate = test system: DU-145 prostate
MCF7 breast = test system: MCF7 breast
HS 578T breast = test system: HS 578T breast
NCI-H522 lung = test system: NCI-H522 lung
KM12 colon = test system: KM12 colon
MDA-MB-468 breast = test system: MDA-MB-468 breast

For `COc1cccc(-c2nn(-c3ccccc3)cc2-c2ccnc(NCCCNC(=O)Nc3ccc(F)cc3)c2)c1`, the GI50 (UO-31 renal) was 5.1 µM, the TGI (UO-31 renal) was over 37 µM and the GI50 (NCI/ADR-RES ovarian) was 7.29 µM. The TGI (NCI/ADR-RES ovarian) was 25.4 µM, the GI50 (U251 CNS) was 9.84 µM and the TGI (U251 CNS) was over 37 µM. It also gave a GI50 (NCI-H460 lung) of 6.54 µM, a TGI (NCI-H460 lung) of 17.1 µM and a GI50 (SW-620 colon) of 8.02 µM. It also gave a TGI (SW-620 colon) of over 37 µM, a GI50 (CCRF-CEM leukemia) of 8.53 µM and a TGI (CCRF-CEM leukemia) of 31.5 µM. It also gave a GI50 (MOLT-4 leukemia) of 3.94 µM, a TGI (MOLT-4 leukemia) of 19 µM and a GI50 (MALME-3M melanoma) of 5.45 µM. The TGI (MALME-3M melanoma) was 10.6 µM, the GI50 (K-562 leukemia) was 2.96 µM and the TGI (K-562 leukemia) was over 37 µM. For the same compound, the GI50 (MDA-MB-435) was 5.61 µM, the TGI (MDA-MB-435) was 12.8 µM and the GI50 (HCC-2998 colon) was 7.38 µM. For the same compound, the TGI (HCC-2998 colon) was 20 µM, the GI50 (SN12C renal) was 9.83 µM and the TGI (SN12C renal) was over 37 µM. The GI50 (SK-MEL-5 melanoma) was 5.64 µM, the TGI (SK-MEL-5 melanoma) was 10.8 µM and the GI50 (HCT-15 colon) was 7.64 µM. For the same compound, the TGI (HCT-15 colon) was over 37 µM, the GI50 (OVCAR-8 ovarian) was 10.6 µM and the TGI (OVCAR-8 ovarian) was over 37 µM. The GI50 (SNB-19 CNS) was 12.1 µM, the TGI (SNB-19 CNS) was over 37 µM and the GI50 (RXF 393 renal) was 6.01 µM. It also gave a TGI (RXF 393 renal) of 28.6 µM, a GI50 (OVCAR-5 ovarian) of 11.2 µM and a TGI (OVCAR-5 ovarian) of over 37 µM. For the same compound, the GI50 (T-47D breast) was 7.95 µM, the TGI (T-47D breast) was over 37 µM and the GI50 (SF-268 CNS) was 7.08 µM. The TGI (SF-268 CNS) was 30 µM, the GI50 (RPMI-8226 leukemia) was 5.96 µM and the TGI (RPMI-8226 leukemia) was 24.6 µM. For the same compound, the GI50 (SF-539 CNS) was 6.34 µM, the TGI (SF-539 CNS) was 13.4 µM and the GI50 (CAKI-1 renal) was 8.63 µM. The TGI (CAKI-1 renal) was over 37 µM, the GI50 (A498 renal) was 7.37 µM and the TGI (A498 renal) was 31.4 µM. For the same compound, the GI50 (UACC-62 melanoma) was 7.57 µM, the TGI (UACC-62 melanoma) was 24.2 µM and the GI50 (SK-MEL-28 melanoma) was 6.57 µM. For the same compound, the TGI (SK-MEL-28 melanoma) was 15.5 µM, the GI50 (NCI-H226 lung) was 10.8 µM and the TGI (NCI-H226 lung) was over 37 µM. It also gave a GI50 (HOP-92 NSCLC) of 6.25 µM, a TGI (HOP-92 NSCLC) of 31.1 µM and a GI50 (BT-549 breast) of 6.24 µM. It also gave a TGI (BT-549 breast) of 20.3 µM, a GI50 (786-0 renal) of 9.34 µM and a TGI (786-0 renal) of over 37 µM. It also gave a GI50 (EKVX NSCLC) of 9.63 µM, a TGI (EKVX NSCLC) of over 37 µM and a GI50 (ACHN renal) of 10.6 µM. For the same compound, the TGI (ACHN renal) was over 37 µM, the GI50 (SNB-75 CNS) was 4.18 µM and the TGI (SNB-75 CNS) was 22.7 µM. The GI50 (MDA-MB-231 breast) was 7.84 µM, the TGI (MDA-MB-231 breast) was 23 µM and the GI50 (UACC-257 melanoma) was 7.05 µM. For the same compound, the TGI (UACC-257 melanoma) was 16.9 µM, the GI50 (HT29 colon) was 7.17 µM and the TGI (HT29 colon) was 18.2 µM. It also gave a GI50 (HL-60(TB) leukemia) of 3.77 µM, a TGI (HL-60(TB) leukemia) of 13.7 µM and a GI50 (COLO 205 colon) of 8.17 µM. For the same compound, the TGI (COLO 205 colon) was 29.3 µM, the GI50 (A549 NSCLC) was 9.95 µM and the TGI (A549 NSCLC) was over 37 µM. For the same compound, the GI50 (HCT-116 colon) was 5.7 µM, the TGI (HCT-116 colon) was 17 µM and the GI50 (SK-MEL-2 melanoma) was 6.3 µM. The TGI (SK-MEL-2 melanoma) was 12.6 µM, the GI50 (SK-OV-3 ovarian) was 10.8 µM and the TGI (SK-OV-3 ovarian) was over 37 µM. It also gave a GI50 (HOP-62 NSCLC) of 14.7 µM, a TGI (HOP-62 NSCLC) of over 37 µM and a GI50 (SF-295 CNS) of 7.16 µM. It also gave a TGI (SF-295 CNS) of 21.7 µM, a GI50 (TK-10 renal) of 21.2 µM and a TGI (TK-10 renal) of over 37 µM. The GI50 (OVCAR-3 ovarian) was 6.18 µM, the TGI (OVCAR-3 ovarian) was over 37 µM and the GI50 (SR leukemia) was 7.7 µM. For the same compound, the TGI (SR leukemia) was over 37 µM, the GI50 (LOX IMVI melanoma) was 5.86 µM and the TGI (LOX IMVI melanoma) was 12 µM. It also gave a GI50 (M14 melanoma) of 6.71 µM, a TGI (M14 melanoma) of 19 µM and a GI50 (PC-3 prostate) of 6.23 µM. It also gave a TGI (PC-3 prostate) of over 37 µM, a GI50 (IGROV1 ovarian) of 9.34 µM and a TGI (IGROV1 ovarian) of over 37 µM. For the same compound, the GI50 (NCI-H23 lung) was 10.1 µM, the TGI (NCI-H23 lung) was over 37 µM and the GI50 (OVCAR-4 ovarian) was 10.5 µM. The TGI (OVCAR-4 ovarian) was over 37 µM, the GI50 (DU-145 prostate) was 14 µM and the TGI (DU-145 prostate) was over 37 µM. For the same compound, the GI50 (MCF7 breast) was 7.17 µM, the TGI (MCF7 breast) was 18 µM and the GI50 (HS 578T breast) was 6.24 µM. The TGI (HS 578T breast) was 17.9 µM, the GI50 (NCI-H522 lung) was 5.07 µM and the TGI (NCI-H522 lung) was 12 µM. It also gave a GI50 (KM12 colon) of 10.5 µM, a TGI (KM12 colon) of over 37 µM and a GI50 (MDA-MB-468 breast) of 4.83 µM. The TGI (MDA-MB-468 breast) was 13 µM.
